The compounds below were run against SARM1 (50-724) (Homo sapiens (Human), UniProt Q6SZW1) (assay: SARM1 (50-724) enzymatic assay). Details: SARM1 inhibitory activity; 2 nM SARM1 (50-724), 200 μM NMN activator, 100 μM NAD+ substrate, 1 h, LC-MS/MS.
Assay type: biochemical
Experimental: The enzymatic assay was performed in a 384-well plate using Dulbecco's PBS buffer as the reaction buffer. Purified SARM1 (50-724) with a final concentration of 2 nM was pre-incubated with the test compound at 1% DMSO final assay concentration for 15 min at room temperature. The reaction was initiated by adding the mixture of 200 μM NMN as activator and 100 μM NAD^+ as substrate. After 1 h of incubation at room temperature, the reaction was terminated with 10 times volume of 70% acetonitrile, then centrifuged at 3800 rpm for 10 min. The samples were analyzed using LC-MS/MS after diluted to the proper concentration by 10 mM ammonium acetate (pH 9.75).

SARM1 (50-724), sequence (Q6SZW1 50-724): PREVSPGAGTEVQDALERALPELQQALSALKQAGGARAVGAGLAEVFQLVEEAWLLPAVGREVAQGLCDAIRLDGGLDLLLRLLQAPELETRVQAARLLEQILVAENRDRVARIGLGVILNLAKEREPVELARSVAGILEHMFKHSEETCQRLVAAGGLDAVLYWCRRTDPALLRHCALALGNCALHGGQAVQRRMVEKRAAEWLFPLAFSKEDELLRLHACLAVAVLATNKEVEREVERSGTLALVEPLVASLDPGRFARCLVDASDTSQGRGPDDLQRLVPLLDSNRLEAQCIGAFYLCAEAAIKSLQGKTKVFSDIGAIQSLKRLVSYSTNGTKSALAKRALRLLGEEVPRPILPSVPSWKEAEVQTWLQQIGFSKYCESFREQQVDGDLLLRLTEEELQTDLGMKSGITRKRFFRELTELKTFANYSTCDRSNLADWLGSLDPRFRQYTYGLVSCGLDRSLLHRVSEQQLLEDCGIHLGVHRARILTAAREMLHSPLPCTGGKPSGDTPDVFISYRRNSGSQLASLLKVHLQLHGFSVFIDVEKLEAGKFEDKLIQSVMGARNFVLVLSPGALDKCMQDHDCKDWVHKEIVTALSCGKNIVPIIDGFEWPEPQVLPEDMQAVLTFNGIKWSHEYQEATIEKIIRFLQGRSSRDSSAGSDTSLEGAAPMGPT

IC50 [µM]	Structure (SMILES)
< 5	Cc1ccncc1-c1ccc2[nH]nc(C#N)c2c1 [Compound 92, 5-(4-methylpyridin-3-yl)-1H-indazole 3-carbonitrile]
< 5	Cc1ccncc1-c1cccc(O)c1 [Compound 4, 3-(4-methylpyridin-3-yl)phenol]
< 5	O=c1[nH]c2ccc(-c3cncc(Nc4nccs4)c3)cc2o1 [Compound 115, 6-(5-(thiazol-2-ylamino)pyridin-3-yl)benzo[d]oxazol-2(3H)-one]
5 to 15	Cc1ccncc1-c1ccc2c(c1F)NC(=O)C2=O [Compound 37, 7-fluoro-6-(4-methylpyridin-3-yl)indoline-2,3-dione]
< 5	Cc1ccncc1-c1cc[nH]c(=O)c1 [Compound 2, 4-methyl-[3,4′-bipyridin]-2′(1′H)-one]
< 5	Cc1ccncc1-c1ccc(Br)c(O)c1 [Compound 17, 2-bromo-5-(4-methylpyridin-3-yl)phenol]
< 5	Cc1ccc(-c2cnccc2C)cc1O [Compound 32, 2-methyl-5-(4-methylpyridin-3-yl)phenol]
> 30	Cc1ncncc1-c1ccc2[nH]c(=O)oc2c1 [Compound 78, 6-(4-methylpyrimidin-5-yl)benzo[d]oxazol-2(3H)-one]
15 to 30	Cc1ccncc1-c1ccc2c(c1)NC(=O)C2 [Compound 55, 6-(4-methylpyridin-3-yl)indolin-2-one]
15 to 30	Cc1cc(Cl)ncc1-c1ccc2[nH]c(=O)oc2c1 [Compound 66, 6-(6-chloro-4-methylpyridin-3-yl)benzo[d]oxazol-2(3H)-one]
5 to 15	Cc1ccncc1-c1ccc2[nH]c(=O)n(C)c2c1 [Compound 57, 1-methyl-6-(4-methylpyridin-3-yl)-1,3-dihydro-2H-benzo[d]imidazol-2-one]
< 5	Cc1cc(Nc2cncc(-c3ccc4[nH]c(=O)oc4c3)c2)n(C)n1 [Compound 117, 6-(5-((1,3-dimethyl-1H-pyrazol-5-yl)amino)pyridin-3-yl)benzo[d]oxazol-2(3H)-one]
< 5	COc1ccncc1-c1cc[nH]c(=O)c1 [Compound 3, 4-methoxy-[3,4′-bipyridin]-2′(1′H)-one]
< 5	Cc1ccncc1-c1ccc(O)cc1 [Compound 9, 4-(4-methylpyridin-3-yl)phenol]
5 to 15	Cc1ccncc1-c1cc(F)c(O)c(Cl)c1 [Compound 61, 2-chloro-6-fluoro-4-(4-methylpyridin-3-yl)phenol]
5 to 15	O=c1cc(-c2cccnc2)cc[nH]1 [Compound 1, [3,4′-bipyridin]-2′(1′H)-one]
> 30	Cc1ccncc1-c1cc(O)ccc1F [Compound 14, 4-fluoro-3-(4-methylpyridin-3-yl)phenol]
5 to 15	Nc1cncc(-c2ccc3[nH]c(=O)oc3c2)c1 [Compound 77, 6-(5-aminopyridin-3-yl)benzo[d]oxazol-2(3H)-one]
< 5	CCc1ccncc1-c1ccc2[nH]c(=O)oc2c1 [Compound 83, 6-(4-ethylpyridin-3-yl)benzo[d]oxazol-2(3H)-one]
> 30	Cc1ccncc1-c1ccc2[nH]nc(N)c2c1 [Compound 65, 5-(4-methylpyridin-3-yl)-1H-indazol-3-amine]

IC50 [µM]	Structure (SMILES)
< 5	O=c1[nH]c2ccc(-c3cncc(Nc4ccccc4)c3)cc2o1 [Compound 87, 6-(5-(phenylamino)pyridin-3-yl)benzo[d]oxazol-2(3H)-one]
< 5	Cc1ccncc1-c1ccc2[nH]c(=O)[nH]c(=O)c2c1 [Compound 120, 6-(4-methylpyridin-3-yl)quinazoline-2,4(1H,3H)-dione]
< 5	COc1ccncc1-c1ccc2[nH]c(=O)oc2c1 [Compound 90, 6-(4-methoxypyridin-3-yl)benzo[d]oxazol-2(3H)-one]
15 to 30	Cc1ccncc1-c1ccc2cc[nH]c2c1 [Compound 23, 6-(4-methylpyridin-3-yl)-1H-indole]
5 to 15	Cc1ccncc1-c1ccc(F)c(O)c1 [Compound 19, 2-fluoro-5-(4-methylpyridin-3-yl)phenol]
5 to 15	Cc1ccncc1-c1ccc2[nH]nc(C(F)(F)F)c2c1 [Compound 93, 5-(4-methylpyridin-3-yl)-3-(trifluoromethyl)-1H-indazole]
5 to 15	Cc1ccncc1-c1ccc2c(c1)OCCC(=O)N2 [Compound 85, 8-(4-methylpyridin-3-yl)-2,3-dihydrobenzo[b][1,4]oxazepin-4(5H)-one]
< 5	Cc1ccncc1-c1ccc(CN)cc1 [Compound 8, (4-(4-methylpyridin-3-yl)phenyl)methanamine]
< 5	O=c1[nH]c2ccc(-c3cncc(Nc4cccc(F)c4)c3)cc2o1 [Compound 101, 6-(5-((3-fluorophenyl)amino)pyridin-3-yl)benzo[d]oxazol-2(3H)-one]
< 5	Cc1ccncc1-c1ccc2c(c1)C(=O)C(=O)N2 [Compound 76, 5-(4-methylpyridin-3-yl)indoline-2,3-dione]
< 5	Cc1ccncc1-c1ccc(O)c(O)c1 [Compound 47, 4-(4-methylpyridin-3-yl)benzene-1,2-diol]
< 5	O=c1[nH]c2ccc(-c3cncc(Oc4ccccc4)c3)cc2o1 [Compound 119, 6-(5-phenoxypyridin-3-yl)benzo[d]oxazol-2(3H)-one]
< 5	CC(C)c1cccc(Nc2cncc(-c3ccc4[nH]c(=O)oc4c3)c2)c1 [Compound 103, 6-(5-((3-isopropylphenyl)amino)pyridin-3-yl)benzo[d]oxazol-2(3H)-one]
5 to 15	Cc1ccncc1-c1ccc2c(c1)NC(=O)NC2 [Compound 72, 7-(4-methylpyridin-3-yl)-3,4-dihydroquinazolin-2(1H)-one]
< 5	Cc1ccncc1-c1cc(O)cc(Cl)c1 [Compound 60, 3-chloro-5-(4-methylpyridin-3-yl)phenol]
5 to 15	Cc1ccncc1-c1cc(Cl)c2[nH]ncc2c1 [Compound 58, 7-chloro-5-(4-methylpyridin-3-yl)-1H-indazole]
< 5	CC(=O)Nc1nc2cc(-c3cnccc3C)ccc2[nH]1 [Compound 73, N-(5-(4-methylpyridin-3-yl)-1H-benzo[d]imidazol-2-yl)acetamide]
15 to 30	Cc1ccncc1-c1ccc2c(c1)NCCO2 [Compound 54, 6-(4-methylpyridin-3-yl)-3,4-dihydro-2H-benzo[b][1,4]oxazine]
< 5	Cc1ccncc1-c1ccc2[nH]c(=O)sc2c1 [Compound 86, 6-(4-methylpyridin-3-yl)benzo[d]thiazol-2(3H)-one]

Structure (SMILES)	IC50 [µM]
Cc1ccncc1-c1ccc(NC(=N)N)cc1 [Compound 69, 1-(4-(4-methylpyridin-3-yl)phenyl)guanidine]	15 to 30

— patent US20250236613A1, “SARM1 MODULATORS, PREPARATIONS, AND USES THEREOF” (SIRONAX LTD., priority 2021, published 2025)
